Measured values as given in patent US6545028B2, “Chemical compounds having ion channel blocking activity for the treatment of immune dysfunction” (NeuroSearch A/S, priority 1997, dated 2003).

Columns and labels:
[1] = molecular target: human placenta Ca^2+-activated, intermediate conductance potassium channel protein (IKCa) (Homo sapiens, UniProt O15554); assay: Whole cell patch clamp on HEK293 or CHO cells transfected with the human IKCa channel; assay type: cell-based; conditions: 1 μM Clotrimazole added to the bath solution; reversed by washout
Experimental: HEK293 or CHO tissue culture cells were grown in DMEM (Dulbecco's Modified Eagle Medium) supplemented with 10% FCS (foetal calf serum) at 37° C. in 5% CO2. One day prior to transfection, 10^6 cells were plated in a cell culture T25 flask. The following day, cells were transfected using lipofection (20 μL Lipofectamin™, Life Technologies, with 2.5 μg of the plasmid pNS2Z_hIK2 in a total volume of 540 μL). The lipofection mixture was overlaid on the cells and incubated at 37° C. for 5 hours.
The cells were then rinsed with regular media and plated to a 30 mm culture dish. 18-48 hours after, transfected cells were assayed for the presence of Ca^2+-activated, intermediate conductance potassium channel protein by electrophysiological measurements.
Whole cell currents were recorded using a pipette solution of 144 mM KCl, 1 mM EGTA, 9 mM NTA, 1.085 mM CaCl2, 5.54 mM MgCl2, and 10 mM HEPES (pH 7.2) and a bath solution of 144 mM KCl, 2 mM CaCl2, 1 mM MgCl2, 0.01% (w/v) BSA and 10 mM HEPES (pH=7.4). Current traces were recorded from cells containing human Ca^2+-activated, intermediate conductance potassium channels after application of voltage ramps (−100 mV to +100 mV, 200 ms duration).

T cells = assay: Inhibition of antigen induced T cell proliferation ([^3H]thymidine incorporation); assay type: cell-based; conditions: Antigen (crude Candida albicans extract, 10 μg/ml), 144 hours culture
Experimental: The chemical compounds used according to the invention prevent immunological proliferation by selective inhibition of the Ca^2+-activated K-channels in T- and B-lymphocytes. This effect may be verified using various proliferation assays. In this experiment the proliferative assay described by Ødum et al. [Ødum N, Kanner S B, Ledbetter J A, & Svejgaard A; J. Immunol. 1993 150 (12) 5289-5298] was used.
Assays were performed in culture medium (RPMI 1640; available from Gibco, Grand island, N.Y.) supplemented with 10% pooled human serum, 2 mM L-glutamine, 100 μg/ml penicillin, and 100 μg/ml streptomycin (available from Novo Nordisk, Copenhagen, Denmark) in 96-well round bottom tissue culture plates (available from Nunc, Roskilde, Denmark) with a final volume of 200 μl.
T cells were preincubated for three hours with the test compounds before addition of antigen (crude Candida albicans extract, 10 μg/ml). T cells were cultured at 5×10^4 cells/well for 144 hours. Twelve hours before harvest, [^3H]thymidine ([…]) was added. The cells were harvested onto glass fibre filters, and the [^3H]thymidine incorporation was measured in a scintillation counter. The results were expressed as mean counts per minute (cpm) from triplicate cultures.

Row | Compound | Effect on the Ca^2+-activated potassium current [1] | T Cell Proliferation (T cells; test compound 1 μM) [cpm × 10^−3] | T Cell Proliferation (T cells; test compound 5 μM) [cpm × 10^−3] | T Cell Proliferation (T cells; test compound 10 μM) [cpm × 10^−3]
1 | Clc1ccccc1C(c1ccccc1)(c1ccccc1)n1ccnc1 [Clotrimazole, 1-[(2-chlorophenyl)-diphenyl-methyl]-1H-imidazole] | inhibition of the Ca^2+-activated potassium current | 5.8 | 4.2 | 1.8
2 | CCOC(=O)C1=C(C)NC(C)=C(C(=O)OC)C1c1cccc([N+](=O)[O-])c1 (stereo not shown) [Nitrendipine, 1,4-dihydro-2,6-dimethyl-4-(3-nitrophenyl)pyridine-3,5-dicarboxylic acid ethyl methyl ester] |  | 5.6 | 3.8 | 4.0
